This is an account of results in patent publication US12473305B2, “Pyrazole boronic acid compound, pharmaceutical composition containing same, and uses thereof” (BEIJING SONGRUN PHARMACEUTICAL TECHNOLOGY CO., LTD., priority 2020, dated 2025).

The subject of test [1] is colorectal cancer cell line HCT116. Kind of test: CellTiter-Glo tumor cell proliferation, HCT116. The following applies: 72 h; for pIC50: CellTiter-Glo; for inhibition at 1 µM / inhibition at 10 µM: read-out: Inhibition rate HCT116 (%). In kind it is cell-based, human. The protocol: (§1) The effect of compounds on tumor cell proliferation was detected by CellTiter-Glo method. Human melanoma cell line A375, non-small cell lung cancer cell line A549, human lung adenocarcinoma cell line H1299, colorectal cancer cell line HCT116, liver cancer cell line HepG2 and gastric cancer cell line MGC80-3 were cultured in vitro. The cells were collected after growing to the logarithmic growth phase, centrifuged at 1000 rpm for 5 min, and suspended in an appropriate amount of medium after discarding the supernatant, and the cell concentration was adjusted to 2×10^4/mL. The cell suspension was inoculated onto the 384-well cell culture plate, with 50 μL per well. After being cultured in a cell incubator (37° C., 5% CO2) for 24 h, 5 μL of drug diluted by the cell culture medium was added into each well for the treatment group. Each drug was provided in triplicate. After 72 h incubation in the incubator, 20 μL of CellTiter-Glo was added into each well, and the relative luminescence unit (RLU) was measured with Multimode Microplate Reader Varioskan Flash (Thermo Scientific, USA) after placed at 37° C. for 20 min, and compared with the RLU of the control group. SigmaPlot 10.0 software was used to calculate the inhibition rate and IC50 value.

In test [2] the test system is Human melanoma cell line A375. Kind of test: CellTiter-Glo tumor cell proliferation, A375. In kind it is cell-based. The following applies: 72 h; for inhibition at 1 µM / inhibition at 10 µM: Homo sapiens, A-375, read-out: Inhibition rate A375 (%). The protocol: as §1
The test system of test [3] is non-small cell lung cancer cell line A549. Kind of test: CellTiter-Glo tumor cell proliferation, A549. The following applies: 72 h; for inhibition at 1 µM / inhibition at 10 µM: Homo sapiens, A549, read-out: Inhibition rate A549 (%). Format: cell-based, human. The protocol:
as §1

pIC50: −log10 of the molar value. Counter-ions that a name gives are not always drawn.

Regarding `CC(C)C[C@H](NC(=O)Cn1nc(-c2cccc(OCCN3CC(C)OC(C)C3)c2)cc1-c1ccccc1)B(O)O` (stereo partly drawn) [Compound 36, ((1R)-1-(2-(3-(3-(2-(2,6-dimethylmorpholino)ethoxy)phenyl)-5-phenyl-1H-pyrazol-1-yl)acetamido)-3-methylbutyl)boronic acid hydrochloride], the pIC50 – broadly, −log10 of the IC50, conventionally taken in molar units – in test [1] (Homo sapiens, HCT-116) is 7.24.

On to `CC(C)C[C@H](NC(=O)Cn1nc(-c2ccccc2OS(=O)(=O)c2cccc(C(F)(F)F)c2)cc1-c1ccco1)B(O)O` [Compound 24, (R)-(1-(2-(5-(furan-2-yl)-3-(2-(((3-(trifluoromethyl)phenyl)sulfonyl)oxy)phenyl)-1H-pyrazol-1-yl)acetamido)-3-methylbutyl)boronic acid], for which the inhibition (in general, the drop in the measured response relative to a control, in per cent) at 1 µM in test [2] stood at 14.9%; in test [1] (Homo sapiens, HCT-116) it was 4.9%; in test [3], 1.9%. The inhibition at 10 µM turned out to be 97% in test [2]; 97.1% in test [1] (Homo sapiens, HCT-116); 66.7% in test [3].

`CC(C)C[C@H](NC(=O)Cn1nc(-c2ccccc2OS(=O)(=O)c2cccs2)cc1-c1ccccc1)B(O)O` [Compound 9, (R)-(3-methyl-1-(2-(5-phenyl-3-(2-((thiophen-2-ylsulfonyl)oxy)phenyl)-1H-pyrazol-1-yl)acetamido)butyl)boronic acid]: the inhibition at 1 µM in test [2] worked out at 4.6%; in test [1] (Homo sapiens, HCT-116), 2.9%; in test [3] it was 3.6%. The inhibition at 10 µM in test [2] turned out to be 98.3%; in test [1] (Homo sapiens, HCT-116), 98.3%; in test [3], 83.2%.

On to `CC(C)C[C@H](NC(=O)Cn1nc(-c2ccccc2OS(=O)(=O)c2cccc(Br)c2)cc1-c1ccccc1)B(O)O` [Compound 6, (R)-(1-(2-(3-(2-(((3-bromophenyl)sulfonyl)oxy)phenyl)-5-phenyl-1H-pyrazol-1-yl)-acetamido)-3-methylbutyl)boronic acid], for which the inhibition at 1 µM stood at 7% in test [2]; 5.9% in test [1] (Homo sapiens, HCT-116); 13.3% in test [3]. Besides, the inhibition at 10 µM came out at 95% in test [2]; 97% in test [1] (Homo sapiens, HCT-116); 64.7% in test [3].

`Cc1cc(-c2cccc(NS(=O)(=O)c3cccc(C(F)(F)F)c3)c2)nn1CC(=O)N[C@@H](CC(C)C)B(O)O` [Compound 26]: the values for the pIC50 in test [2] (CellTiter-Glo), in test [1] and in test [3] (CellTiter-Glo) were 5.59, 5.85 and 5.51, respectively.

For the compound `CC(C)C[C@H](NC(=O)Cn1nc(-c2ccccc2OS(=O)(=O)c2ccccn2)cc1-c1ccccc1)B(O)O` [Compound 10, (R)-(1-(2-(3-(2-((pyridin-2-ylsulfonyl)oxy)phenyl)-5-phenyl-1H-pyrazol-1-yl)acetamido)-3-methylbutyl)boronic acid], the inhibition at 1 µM in test [2] turned out to be 1.5%; in test [1] (Homo sapiens, HCT-116), 6.6%; in test [3], 0.1%. Also, the inhibition at 10 µM was 98% in test [2]; 98% in test [1] (Homo sapiens, HCT-116); 72.9% in test [3].

For `CC(C)C[C@H](NC(=O)Cn1nc(-c2ccccc2OS(=O)(=O)c2ccc(C(F)(F)F)cc2)cc1-c1ccccc1)B(O)O` [Compound 2, (R)-(3-methyl-1-(2-(5-phenyl-3-(2-(((4-(trifluoromethyl)phenyl)sulfonyl)oxy)phenyl)-1H-pyrazol-1-yl)acetamido)butyl)boronic acid], the inhibition at 1 µM in test [2] was 8.6%; in test [1] (Homo sapiens, HCT-116), 1.4%; in test [3], 15.1%. The inhibition at 10 µM in test [2] was 97.8%; in test [1] (Homo sapiens, HCT-116), 97.9%; in test [3], 61.7%.

Take `CC(C)C[C@H](NC(=O)Cn1nc(-c2ccccc2OS(=O)(=O)c2cccc(C(F)(F)F)c2)cc1-c1cccs1)B(O)O` [Compound 25, (R)-(3-methyl-1-(2-(5-(thiophen-2-yl)-3-(2-(((3-(trifluoromethyl)phenyl)sulfonyl)oxy)phenyl)-1H-pyrazol-1-yl)acetamido)butyl)boronic acid]: the inhibition at 1 µM was 10.3% in test [2]; 5.3% in test [1] (Homo sapiens, HCT-116); 6.2% in test [3]. Further, the inhibition at 10 µM in test [2] is 97.7%; in test [1] (Homo sapiens, HCT-116), 97.2%; in test [3] it was 71.2%.

Turning to `CC(C)C[C@H](NC(=O)Cn1nc(-c2ccccc2OS(=O)(=O)c2cccc(C(F)(F)F)c2)cc1-c1cccc(Br)c1)B(O)O` [Compound 14, (R)-(1-(2-(5-(3-bromophenyl)-3-(2-(((3-(trifluoromethyl)phenyl)sulfonyl)oxy)phenyl)-1H-pyrazol-1-yl)acetamido)-3-methylbutyl)boronic acid], the inhibition at 1 µM in test [2] came to 16.5%; in test [1] (Homo sapiens, HCT-116), 9.9%; in test [3] it was 10.8%. Moreover, the inhibition at 10 µM in test [2] came out at 50.4%; in test [1] (Homo sapiens, HCT-116), 9.2%; in test [3], 8%.

Consider `CC(C)C[C@H](NC(=O)Cn1nc(-c2ccccc2OS(=O)(=O)c2cccc(C(F)(F)F)c2)cc1-c1ccc(C#N)cc1)B(O)O` [Compound 18, (R)-(1-(2-(5-(4-cyanophenyl)-3-(2-(((3-(trifluoromethyl)phenyl)sulfonyl)oxy)phenyl)-1H-pyrazol-1-yl)acetamido)-3-methylbutyl)boronic acid], for which the inhibition at 1 µM in test [2] came out at 4.6%; in test [1] (Homo sapiens, HCT-116), 5.5%; in test [3], 7.1%. Besides, the inhibition at 10 µM came out at 81.1% in test [2]; 89.7% in test [1] (Homo sapiens, HCT-116); 29% in test [3].

Consider `CC(C)C[C@H](NC(=O)Cn1nc(-c2ccccc2OS(=O)(=O)c2cccc(C(F)(F)F)c2)cc1-c1ccc(-c2ccccc2)cc1)B(O)O` [Compound 22, (R)-(1-(2-(5-([1,1′-biphenyl]-4-yl)-3-(2-(((3-(trifluoromethyl)phenyl)sulfonyl)oxy)phenyl)-1H-pyrazol-1-yl)acetamido)-3-methylbutyl)boronic acid], for which the inhibition at 1 µM in test [2] was 10.9%; in test [1] (Homo sapiens, HCT-116), 3.9%; in test [3] it was 3.7%. Besides, the inhibition at 10 µM in test [2] stood at 39.1%; in test [1] (Homo sapiens, HCT-116), 18.1%; in test [3], 16.1%.

`CC(C)[C@H](NC(=O)CN1NC(C)(c2cccc(OCCN3CCCC3)c2)C=C1c1ccccc1)B(O)O` (stereo partly drawn) [Compound 33, (R)-(3-methyl-1-(2-(5-phenyl-3-(3-(2-(pyrrolidin-1-yl)ethoxy)phenyl)-1H-pyrazol-1-yl)acetamido)isobutyl)boronic acid hydrochloride] showed a pIC50 in test [1] (Homo sapiens, HCT-116) of 6.03.

“(R)-(3-methyl-1-(2-(3-(3-(2-(4-methylpiperazin-1-yl)ethoxy)phenyl)phenyl)-5-phenyl-1H-pyrazol-1-yl)acetamido)butyl)boronic acid hydrochloride [Compound 35]”: the pIC50 in test [1] is 6.55.

“(R)-(1-(2-(3-(N,N-diethylethoxy)phenyl)-5-phenyl-1H-pyrazol-1-yl)acetamido)isobutyl)boronic acid hydrochloride [Compound 32]” had a negative-log IC50 (pIC50) in test [1] of 6.37.

Turning to `CC(C)[C@H](NC(=O)CN1NC(C)(c2cccc(OCCN3CCCCC3)c2)C=C1c1ccccc1)B(O)O` (stereo partly drawn) [Compound 34, (R)-(3-methyl-1-(2-(5-phenyl-3-(3-(2-(piperidin-1-yl)ethoxy)phenyl)-1H-pyrazol-1-yl)acetamido)isobutyl)boronic acid hydrochloride], the pIC50 in test [1] (Homo sapiens, HCT-116) was 6.05.
